The data set relates to DBA-2 mice. Kind of data set: Glomerular filtration rate (GFR) by [14C]inulin clearance after bolus drug. It is filed as in vivo. The method, then: British Journal of Cancer (1998) 78(11), 1457-1463 ? […] In contrast to Tomudex (ZD1694), ZD9331 may therefore be active against tumours with low FPGS activity. […] In view of the history of renal toxicity with some earlier TS inhibitors and the possible therapeutic use of bolus ZD9331, we have examined the effects of bolus ZD9331 dose and route of administration on plasma and kidney pharmacokinetics and renal function in mice. Renal function was assessed by measuring [14C]inulin clearance, and drug concentrations were assayed by reverse-phase high-performance liquid chromatography (HPLC). […] Kidney drug concentrations were slightly elevated in iv.- versus i.p.-treated animals at the low dose (50 mg kg-'), with a correspondingly larger area under the curve. However, at the highest dose (200 mg kg-'), peak kidney drug concentrations were 20-fold higher following i.v. administration than after i.p., with marked kidney retention, resulting in a 50-fold greater kidney drug exposure for the i.v. versus the i.p. route. […] These adverse effects can be readily overcome by i.p. administration, indicating the likely need for short infusions in clinical settings. […] Early studies established that nephrotoxicity may be a result of poor aqueous solubility of 2-amino compounds such as CB3717, and it was shown that 2-desamino CB3717 was more water soluble and less nephrotoxic (Jones et al, 1989; 1996). […] These polyglutamate forms also exibit intra- cellular retention, which may contribute to toxicity as well as anti- tumour activity. […] Such compounds might be expected to show activity in a different spectrum of tumours from ZD1694 and to have a more manageable toxicity profile because of the lack of retained cyto- toxic metabolites. […] MATERIALS AND METHODS Drug administration and animals The compound ZD933 1 (Figure 1) was provided as a white crystalline salt. ['4C]inulin was provided as a carboxylic acid (Amersham, UK, 250 µCi in 5 ml, specific activity 6.6 mCi mmol-') and diluted to an activity of 5 µCi ml-' in phosphate-buffered saline (PBS). ZD9331 was dissolved in 0.05 M sodium bicarbonate, 1457 1458 Ml Walton et al ~~ N Ny~~~14COOHH 0 H IN H N CH ~~~~H , 4 H3C N3 H Figure 1 The chemical structure of ZD9331 adjusted to pH 9.0 and administered either i.v. via the tail vein or i.p. at 0.01 ml g-' mouse body weight. [14C]inulin was administered at 0.05 gCi g-' (i.e. 0.01 ml g-') i.v. via the tail vein. Adult female DBA-2 mice were obtained from OLAC (Bicester, UK) and used at 8-12 weeks of age at a body weight of 15-25 g. Mice were housed in cages containing untreated sawdust and allowed access to food and water ad libitum. Sample preparation Plasma and tissue samples were prepared using standard tech- niques (Walton et al, 1996). Briefly, whole blood was obtained by cardiac puncture into heparinized syringes from halothane- anaesthetized mice. Plasma was prepared by centrifugation at 12 000 r.p.m. x 2 min in a bench-top microcentrifuge. Kidney and liver tissues were rapidly removed, washed and snap frozen on dry ice. Frozen plasma and tissues were stored at -20?C for up to 4 weeks prior to analysis. Individual samples were thawed on ice and handled rapidly. ZD9331 was extracted from whole plasma or tissue homogenates (33% w/v in 0.1 M Tris, pH 10.0) by the addition of an equal volume of acetonitrile, mixing and centrifugation and the super- natant removed for injection into the HPLC system. Samples were diluted with Tris buffer (0.1 M, pH 10.0) on to the linear part of the calibration curve prior to HPLC analysis. Extraction efficiencies were >95%. HPLC analysis Concentrations of ZD9331 were measured in biological samples using reversed phase HPLC on equipment supplied by Kontron (Watford, UK). Separations were carried out using stainless-steel columns heated at 45?C and packed with C18 Supelcosil ODS (10 cm x 4.6 mm, 5 µm bead size, Sigma, Dorset) and protected with NewGuard C18 columns (Anachem, Luton, UK). […]

“And” between values parts separate entries of the source, which are not always exact repeats. Identical values can stand only once.

Consider `C#CCN(Cc1ccc2nc(N)[nH]c(=O)c2c1)c1ccc(C(=O)N[C@@H](CCC(=O)O)C(=O)O)cc1` [CB3717, N10-propargyl-5,8-dideazafolic acid, reference compound], for which the “effect on GFR” value is listed as “significant renal toxicity” (150 mg kg-1 i.p., 24 h after administration); “significant renal toxicity” (150 mg kg-1 i.v., 4 h after administration); “significant renal toxicity” (150 mg kg-1 i.v., 24 h after administration).

As to [14C]inulin [reference compound], where the note is “normal DBA-2 mice, i.v., two independent experiments”, the “plasma clearance of [14C]inulin” value is 19.5 mL/min/kg and 21.3 mL/min/kg.
